For the assay, the target named is T1, Serine protease 1 (Bos taurus, UniProt P00760).
T1 sequence (P00760 whole entry): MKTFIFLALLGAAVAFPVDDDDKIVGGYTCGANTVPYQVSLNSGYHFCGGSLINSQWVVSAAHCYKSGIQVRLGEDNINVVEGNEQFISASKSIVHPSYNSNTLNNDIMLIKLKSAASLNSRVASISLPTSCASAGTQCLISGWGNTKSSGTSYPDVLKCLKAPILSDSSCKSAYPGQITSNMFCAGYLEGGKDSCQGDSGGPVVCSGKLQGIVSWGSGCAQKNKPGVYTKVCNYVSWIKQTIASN
As to the kind of experiment: Inhibition of bovine beta-trypsin incubated for 5 mins using BAPNA as substrate by colorimetric assay.

pKi: −log10 of the molar value. Bridge positions count the residues as written; N and C are the ends. Peptide text beside a SMILES is read from it.

The term pKi denotes −log10 of the Ki, conventionally taken in molar units.

`CC[C@H](C)[C@@H]1NC(=O)[C@@H]2CCCN2C(=O)[C@H](Cc2c[nH]c3ccccc23)NC(=O)[C@H]([C@@H](C)O)NC(=O)[C@@H]2CSSC[C@@H]3NC(=O)[C@H]([C@@H](C)O)NC(=O)[C@H](CCC(=O)O)NC(=O)CNC(=O)[C@@H]4CSSC[C@H](NC(=O)CNC(=O)[C@@H]5CCCN5C(=O)[C@H]([C@@H](C)O)NC(=O)[C@H](CC(N)=O)NC(=O)[C@H](CSSC[C@H](NC1=O)C(=O)N[C@@H]([C@@H](C)O)C(=O)N[C@@H](CCCNC(=N)N)C(=O)N[C@@H](CC(=O)O)C(=O)NCC(=O)N[C@@H](CC(C)C)C(=O)N1CCC[C@H]1C(=O)N[C@@H](C(C)C)C(=O)N4)NC(=O)[C@H]([C@@H](C)O)NC(=O)CNC(=O)CNC(=O)[C@H](Cc1ccccc1)NC3=O)C(=O)N[C@@H](CO)C(=O)N2` (cyclo(CFGGTCNTPGCSCTWPICTRDGLPVCGET); disulfide 1-13, 6-18, 11-26) had a pKi of 10.52 to 10.70.
The value for `CCC(C)[C@@H]1NC(=O)CNC(=O)[C@H](CC(N)=O)NC(=O)[C@H](Cc2ccc(O)cc2)NC(=O)[C@@H]2CSSC[C@@H]3NC(=O)[C@@H]4CCCN4C(=O)[C@H](C(C)CC)NC(=O)[C@H](Cc4ccc(O)cc4)NC(=O)[C@H](C(C)C)NC(=O)[C@@H]4CSSC[C@H](NC(=O)[C@H](CO)NC(=O)[C@H](CSSC[C@H](NC(=O)[C@@H]5CCCN5C1=O)C(=O)N[C@@H](C)C(=O)N[C@@H](CCC(=O)O)C(=O)N[C@@H](CO)C(=O)N4)NC(=O)CNC(=O)[C@H](CC(C)C)NC(=O)[C@H](CC(C)C)NC(=O)[C@H](C)NC(=O)[C@H]([C@@H](C)O)NC(=O)[C@H](C(C)C)NC(=O)[C@H]([C@@H](C)O)NC3=O)C(=O)N[C@@H](CO)C(=O)N[C@@H](CC(N)=O)C(=O)N[C@@H](CCCNC(=N)N)C(=O)N[C@@H](C(C)C)C(=O)N2` (stereo partly drawn) was 10.52 to 10.70; that for `CC[C@H](C)[C@@H]1NC(=O)[C@H](C)NC(=O)[C@H](CO)NC(=O)[C@H](CO)NC(=O)[C@H]([C@@H](C)CC)NC(=O)[C@@H]2CSSC[C@@H]3NC(=O)[C@H](C(C)C)NC(=O)[C@H](CCCCN)NC(=O)[C@H](CO)NC(=O)[C@H](CCCCN)NC(=O)[C@@H]4CSSC[C@H](NC(=O)[C@H](CO)NC(=O)[C@H](CCC(=O)O)NC(=O)CNC(=O)[C@H](CSSC[C@H](NC(=O)CNC1=O)C(=O)N[C@@H](CO)C(=O)N4)NC(=O)[C@@H]1CCCN1C(=O)[C@H]([C@@H](C)CC)NC(=O)CNC(=O)[C@H](CC(N)=O)NC(=O)[C@H](CCCNC(=N)N)NC(=O)[C@H](Cc1ccc(O)cc1)NC3=O)C(=O)N[C@@H](C(C)C)C(=O)N[C@@H](Cc1c[nH]c3ccccc13)C(=O)N[C@@H]([C@@H](C)CC)C(=O)N1CCC[C@H]1C(=O)N2` (cyclo(AIGCSCKSKVCYRNGIPCGESCVWIPCISS); disulfide 4-18, 6-22, 11-27) was 10.52 to 10.70.

The record behind these values is ChEMBL document CHEMBL4177674, “Cyclotides, a versatile ultrastable micro-protein scaffold for biotechnological applications” (Bioorg Med Chem Lett, 2017).
